{
  "source": "paper PMC8830681",
  "about": "“Circadian control of heparan sulfate levels times phagocytosis of amyloid beta aggregates” (PLoS Genetics, 2022)",
  "key": {"[1]": {"tested_on": "bone-marrow derived macrophages (BMDMs) from Per2::Luc C57BL/6J mice", "experiment": "Phagocytosis assay of HiLyte 488 labeled amyloid-beta by serum-shock synchronized macrophages (with or without heparinases)", "assay_type": "cell-based, mouse", "settings": "ECHO v4.1 fit, average of 3 replicates, log10 mean cell fluorescence, 2 h uptake every 4 h PS16-PS40, WT Per2::Luc BMDMs", "from_the_text": "To do so, we modified a previously-employed BMDM phagocytosis assay (as BMDMs are both models for activated microglia and are known to migrate into the brain in late-stage AD), to use fluorescently labeled Aβ42 to determine if the phagocytosis of Aβ42 is controlled by the circadian clock. In brief, BMDMs were derived from bone marrow progenitor cells extracted from Per2::Luc C57BL/6J mice and differentiated with recombinant Macrophage Colony Stimulating Factor (M-CSF), with flow cytometry confirming complete differentiation into naïve peripheral macrophages. […] 16 h after synchronization, confluent dishes of these BMDMs were treated HiLyte 488 labeled Aβ42 (Anaspec), in triplicate, every 4 h over a 24 h circadian period. BMDMs treated with labeled Aβ42 were harvested two hours after Aβ42 treatment and fixed with formalin. Total cellular fluorescence levels were analyzed with fluorescent confocal microscopy and quantified using a custom cell measurement MATLAB script (Fig 1A, S2 Fig, and S1 Table).\nBone marrow was harvested from the femurs and tibias of one 3–6-month-old male mouse using a 26 g needle and syringe filled with DMEM supplemented media. ACK lysing buffer (Lonza 10-548E) was used to lyse red blood cells in order to prevent erythrocyte contamination. Filtered bone marrow cells were counted using a BioRad TC20 automated cell counter and plated on 35 mm cell culture plates at a density of 1 x 10^6 in macrophage differentiation media. After three days of incubation at 37°C with 5% CO2, fresh macrophage differentiation media was added. After another 3 days of incubation, the cells were washed with 2 ml warm PBS per plate, and replaced with macrophage assay media, and the cultures were incubated for 24 h. Macrophage cultures were then washed with 2 ml warm PBS, macrophage serum starvation media was added, and the plates were incubated in the starve media for 24 h. Next, macrophage serum starvation media was removed, and macrophage serum shock media was added, and cultures were incubated for 2 h. Macrophage cultures were then washed with 2 ml warmed PBS each and macrophage media Luciferin was added. Cultures were sealed with grease and glass cover slips and placed in a LumiCycle 32 luminometer (Actimetrics) to confirm synchronization of circadian rhythmicity. Assays began 16 h post serum shock to allow the synchronized cells to return to homeostasis.\nAll amyloid-beta isoforms were reconstituted 24 h or less before experimentation in water and PBS (1:1) and were dissolved using sonication for approximately 30 min. The reconstituted Aβ was pooled from individual vials before aliquoting for each experimental replicate. The aliquots were then flash frozen and stored at -80°C until 20 min before use.\nUsing synchronized macrophages (as described above) starting at PS16 macrophages were treated every 4 h for 24 h, in triplicate, with 115 μl (0.25 mg/ml) of fluorescently labeled amyloid-beta (PS16, PS20, PS24, PS28, PS32, PS36, and PS40) and heparinases at the reported activity levels (S5 Table). The treated macrophages were then incubated at 37°C for 2 h. Following the two-hour incubation, the media was aspirated, and the macrophages were washed with 2ml of PBS three times before Cell Stripper (Corning 25-056-CI) was added to the cultures, which were then incubated at 37°C for 3 min. Detached macrophages were next centrifuged at 400 g for 5 min, the supernatant was aspirated, and the macrophage cell pellets were resuspended in formalin and incubated in the dark at room temperature for 30 min. Macrophages were then centrifuged for 5 min at 400 g, the supernatant was aspirated, and the macrophages were resuspended in 250 μL of PBS and kept at 4°C. The fixed macrophages were imaged using fluorescent microscopy within a week of the experiment. All fluorescent images from the phagocytosis experiments are available on Mendeley Data (doi: 10.17632/zrmgjyggmr.1). […]"}, "[2]": {"tested_on": "BMDMs from PER1^-/-/PER2^-/- knockout (KO) mice", "experiment": "Phagocytosis assay of HiLyte 488 labeled Aβ42 in clock knockout macrophages", "assay_type": "cell-based, mouse", "method": "(Fig 1B and 1C, S1 Fig). The extended harmonic circadian oscillator model (ECHO version 4.1) was used to analyze the average of the three replicates from each timepoint and predicted that Aβ42 total cellular florescence, and therefore the phagocytosis of Aβ42, oscillated with a circadian period (~26 h, ECHO p-value = 1.61 x 10^−6). Additionally, when compared with PER2 levels extrapolated based on the lumicycle data of the macrophages sampled, we saw that total cellular fluorescence was highest after the zenith of PER2 levels (Fig 1B and 1C). The Aβ42 phagocytosis experiment was then repeated using PER1^-/-/PER2^-/- knockout (KO) mice to confirm the circadian influence of this relationship. BMDMs from the knockout mice were extracted, derived into naïve macrophages, and synchronized as described above. KO macrophages were treated with fluorescently labeled Aβ42 for 2 h, in triplicate, every 4 h for 24 h starting at PS16.\nPER2::LUC C57BL/6J male mice 3–6 months of age bred from Jackson Labs stock strains (Accession # 006852) were used for all WT experiments and were euthanized using CO2 gas and cervical dislocation. […]\nAverage cellular pixel intensities were used as a proxy for of Aβ phagocytosis. At least 100 cells measured per time point were analyzed using the above-described software. […]"}, "[3]": {"settings": "as a free peptide and when bound to HSPGs; cited from earlier work", "from_the_text": "In addition to binding Aβ42, HSPGs regulate the formation of Aβ42 plaques, with highly-sulfated HSPGs accumulating in the plaques. Aβ peptides exist in two forms (Aβ40 or Aβ42) based on the cleavage of the amyloid precursor protein (APP) by β- and γ-secretase. Previous studies show differential phagocytosis of Aβ42 and Aβ40, yet the key amino acids essential to binding are present in Aβ40 (Fig 6C) (13–16, HHQK). However, the anionic bridge between lysine 28 and […], which is broken by HSPGs to allow the formation of Aβ42 aggregates by rapidl ..."}},
  "data": [
    {"substance": "Amyloid-beta 42 labeled with HiLyte 488 [Aβ42]", "values": [
      {"measurement": "Oscillation Type", "setting": "[1]", "result": "Forced"},
      {"measurement": "oscillation of Aβ42 phagocytosis in knockout macrophages (in words)", "setting": "[2]; 2 h treatment, in triplicate, every 4 h for 24 h starting at PS16, total cellular fluorescence", "result": "ablation of the zenith of fluorescence at PS32"},
      {"measurement": "Oscillation Type", "setting": "[2]; ECHO v4.1 fit, average of 3 replicates, log10 mean cell fluorescence, 2 h uptake every 4 h from PS16, PER1-/-/PER2-/- KO BMDMs", "result": "Damped"},
      {"measurement": "aggregation kinetics compared with Aβ40 (in words)", "setting": "[3]", "result": "higher aggregation kinetics"}
    ]}
  ]
}
